Source: ChEMBL document CHEMBL1145398, “Bidirectional, iterative approach to the structural delineation of the functional "chemoprint" in GPR40 for agonist recognition” (J Med Chem, 2007)
pEC50: −log10 of the molar value.

What was measured:
[1] = target: Free fatty acid receptor 1 (Homo sapiens, UniProt O14842); assay: Agonist activity at human GPR40 expressed in HEK-EM 293 cells assessed as increase in intracellular calcium; format: functional, cell-based, HEK293
[2] = tested on: Free fatty acid receptor 1 (Homo sapiens), O14842 [V237F]; assay: Agonist activity at human GPR40 V237F mutant expressed in HEK-EM 293 cells assessed as increase in intracellular calcium; format: functional, cell-based; settings: HEK293
[3] = target: Free fatty acid receptor 1 (Homo sapiens, UniProt O14842, N244A); assay: Agonist activity at human GPR40 N244A mutant expressed in HEK-EM 293 cells assessed as increase in intracellular calcium; format: functional, cell-based, HEK293
[4] = tested on: Free fatty acid receptor 1 (Homo sapiens), O14842 [R258A]; assay: Agonist activity at human GPR40 R258A mutant expressed in HEK-EM 293 cells assessed as effect on intracellular calcium relative to wild type; format: functional, cell-based; settings: HEK293
[5] = tested on: Free fatty acid receptor 1 (Homo sapiens), O14842 [R183A]; assay: Agonist activity at human GPR40 R183A mutant expressed in HEK-EM 293 cells assessed as effect on intracellular calcium relative to wild type; format: functional, cell-based; settings: HEK293
[6] = target: Free fatty acid receptor 1 (Homo sapiens, UniProt O14842, H86A); assay: Agonist activity at human GPR40 H86A mutant expressed in HEK-EM 293 cells assessed as increase in intracellular calcium; format: functional, cell-based, HEK293
[7] = target: Free fatty acid receptor 1 (Homo sapiens, UniProt O14842, H137A); assay: Agonist activity at human GPR40 H137A mutant expressed in HEK-EM 293 cells assessed as increase in intracellular calcium; format: functional, cell-based, HEK293
[8] = target: Free fatty acid receptor 1 (Homo sapiens, UniProt O14842, H86F); assay: Agonist activity at human GPR40 H86F mutant expressed in HEK-EM 293 cells assessed as increase in intracellular calcium; format: functional, cell-based, HEK293
[9] = target: Free fatty acid receptor 1 (Homo sapiens, UniProt O14842, H137F); assay: Agonist activity at human GPR40 H137F mutant expressed in HEK-EM 293 cells assessed as increase in intracellular calcium; format: functional, cell-based, HEK293
[10] = tested on: Free fatty acid receptor 1 (Homo sapiens), O14842 [R258K]; assay: Agonist activity at human GPR40 R258K mutant expressed in HEK-EM 293 cells assessed as effect on intracellular calcium relative to wild type; format: functional, cell-based; settings: HEK293
Chain of Free fatty acid receptor 1 (Homo sapiens), O14842 [R258K] (O14842 whole entry R258K): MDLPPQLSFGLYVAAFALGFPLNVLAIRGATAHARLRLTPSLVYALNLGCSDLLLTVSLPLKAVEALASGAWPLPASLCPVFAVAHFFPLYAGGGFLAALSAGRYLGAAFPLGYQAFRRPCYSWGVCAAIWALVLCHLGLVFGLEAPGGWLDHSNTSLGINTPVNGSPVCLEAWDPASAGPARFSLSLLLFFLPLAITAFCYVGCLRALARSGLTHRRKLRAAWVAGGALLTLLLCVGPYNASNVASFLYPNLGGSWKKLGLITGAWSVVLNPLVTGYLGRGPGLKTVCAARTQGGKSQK

Chain of Free fatty acid receptor 1 (Homo sapiens, UniProt O14842) (O14842 whole entry): as the sequence (O14842 whole entry R258K) above, with K258R counted along it
Chain of Free fatty acid receptor 1 (Homo sapiens, UniProt O14842, H86A) (O14842 whole entry H86A): as the sequence (O14842 whole entry R258K) above, with H86A, K258R counted along it
Chain of Free fatty acid receptor 1 (Homo sapiens, UniProt O14842, H137A) (O14842 whole entry H137A): as the sequence (O14842 whole entry R258K) above, with H137A, K258R counted along it
Chain of Free fatty acid receptor 1 (Homo sapiens), O14842 [R258A] (O14842 whole entry R258A): as the sequence (O14842 whole entry R258K) above, with K258A counted along it
Chain of Free fatty acid receptor 1 (Homo sapiens, UniProt O14842, H137F) (O14842 whole entry H137F): as the sequence (O14842 whole entry R258K) above, with H137F, K258R counted along it
Chain of Free fatty acid receptor 1 (Homo sapiens, UniProt O14842, H86F) (O14842 whole entry H86F): as the sequence (O14842 whole entry R258K) above, with H86F, K258R counted along it
Chain of Free fatty acid receptor 1 (Homo sapiens, UniProt O14842, N244A) (O14842 whole entry N244A): as the sequence (O14842 whole entry R258K) above, with N244A, K258R counted along it
Chain of Free fatty acid receptor 1 (Homo sapiens), O14842 [V237F] (O14842 whole entry V237F): as the sequence (O14842 whole entry R258K) above, with V237F, K258R counted along it
Chain of Free fatty acid receptor 1 (Homo sapiens), O14842 [R183A] (O14842 whole entry R183A): as the sequence (O14842 whole entry R258K) above, with R183A, K258R counted along it

pEC50 [1]: 6.65
Activity ([1]; HEK293): 223 nM
Fold change [2]: 1.1
pEC50 [3]: 4.75
Fold change [4]: > 100
Fold change [5]: > 100
pEC50 [6]: 5.66
pEC50 [7]: < 4.52
pEC50 [8]: 5.92
pEC50 [9]: 5.17
Fold change [10]: > 100
Compound: O=C(O)CCc1ccc(NCc2cccc(Oc3ccccc3)c2)cc1 [GW9508]
